Experimental data: patent EP0908457B1, “3-(1,2-benzisothiazol- and isoxazol-5-Y1)-2,4(1H,3H)-pyrimidinedione or thione and 3-(1,2-benzisothiazol- and isoxazol-5-y1)-4(3H)-pyrimidinone or thione herbicidal agents” (BASF AKTIENGESELLSCHAFT, priority 1997, dated 1999)

What was measured:
[1] = test system: Cyperus serotinus, Rottb.; assay: Preemergence weed control under flooded paddy conditions, CYPSE (Flatsedge); type: in vivo; conditions: preemergence, rated three to four weeks after treatment
[2] = test system: Echinochloa oryzoides (Ard.) Fritsch.; assay: Preemergence weed control under flooded paddy conditions, ECHORC (Watergrass (Calif.)); type: in vivo; conditions: preemergence, flooded paddy, rated three to four weeks after treatment
[3] = test system: Oryza sativa, (L.) Tebonnet; assay: Rice tolerance to post-transplant applications under flooded paddy conditions (Example 187), ORYSAT (Rice, Tebonnet); conditions: rated three to four weeks after treatment
[4] = test system: Monochoria vaginalis, Presl.; assay: Preemergence weed control under flooded paddy conditions, MOOVA (Monochoria); type: in vivo; conditions: preemergence, flooded paddy, rated three to four weeks after treatment
[5] = test system: Sagittaria pygmaea, L.; assay: Preemergence weed control under flooded paddy conditions, SAGPY (Arrowhead (Pygmaea)); type: in vivo; conditions: preemergence, flooded paddy, rated three to four weeks after treatment
[6] = test system: Cyperus iria; assay: Preemergence weed control under flooded paddy conditions, CYPIR (Rice Flatsedge); type: in vivo; conditions: preemergence, flooded paddy, rated three to four weeks after treatment

Structure (SMILES) | CYPSE herbicidal effect rating ([1]; Rate 0.0620 kg/ha) | CYPSE herbicidal effect rating ([1]; Rate 0.1250 kg/ha) | CYPSE herbicidal effect rating ([1]; Rate 0.2500 kg/ha) | ECHORC herbicidal effect rating ([2]; Rate 0.0620 kg/ha) | ECHORC herbicidal effect rating ([2]; Rate 0.1250 kg/ha) | ECHORC herbicidal effect rating ([2]; Rate 0.2500 kg/ha) | ORYSAT herbicidal effect rating ([3]; Rate 0.0620 kg/ha) | ORYSAT herbicidal effect rating ([3]; Rate 0.1250 kg/ha) | ORYSAT herbicidal effect rating ([3]; Rate 0.2500 kg/ha) | MOOVA herbicidal effect rating ([4]; Rate 0.0620 kg/ha) | MOOVA herbicidal effect rating ([4]; Rate 0.1250 kg/ha) | MOOVA herbicidal effect rating ([4]; Rate 0.2500 kg/ha) | SAGPY herbicidal effect rating ([5]; Rate 0.0620 kg/ha) | SAGPY herbicidal effect rating ([5]; Rate 0.1250 kg/ha) | SAGPY herbicidal effect rating ([5]; Rate 0.2500 kg/ha) | CYPIR herbicidal effect rating ([6]; Rate 0.0620 kg/ha) | CYPIR herbicidal effect rating ([6]; Rate 0.1250 kg/ha) | CYPIR herbicidal effect rating ([6]; Rate 0.2500 kg/ha) | CYPSE herbicidal effect rating ([1]; Rate 0.0320 kg/ha) | ECHORC herbicidal effect rating ([2]; Rate 0.0320 kg/ha) | further results
COP(=O)(Cc1nsc2ccc(-n3c(=O)cc(C(F)(F)F)n(C)c3=O)cc12)OC [Example 262, 1,2-Benzisothiazole-3-methanephosphonic acid, 5-[3,6-dihydro-3-methyl-2,6-dioxo-4-(trifluoromethyl)-1(2H)-pyrimidinyl]-, dimethyl ester] | 0.0 | 0.0 | 0.0 | 0.0 | 0.0 | 3.0 | 0.0 | 0.0 | 3.0 | 0.0 | 9.0 | 9.0 | 0.0 | 0.0 | 0.0 | 0.0 | 6.0 | 9.0 | – | – | –
CC(C)OP(=O)(Cc1nsc2ccc(-n3c(=O)cc(C(F)(F)F)n(C)c3=O)cc12)OC(C)C [Example 263, 1,2-Benzisothiazole-3-methanephosphonic acid, 5-[3,6-dihydro-3-methyl-2,6-dioxo-4-(trifluoromethyl)-1(2H)-pyrimidinyl]-, diisopropyl ester] | 9.0 | 9.0 | 9.0 | 0.0 | 0.0 | 2.0 | 0.0 | 0.0 | 4.0 | 0.0 | 6.0 | 9.0 | 0.0 | 0.0 | 0.0 | 7.0 | 9.0 | 9.0 | 9.0 | 0.0 | ORYSAT herbicidal effect rating ([3]; Rate 0.0320 kg/ha): 0.0; MOOVA herbicidal effect rating ([4]; Rate 0.0320 kg/ha): 0.0; SAGPY herbicidal effect rating ([5]; Rate 0.0320 kg/ha): 0.0; CYPIR herbicidal effect rating ([6]; Rate 0.0320 kg/ha): 4.0
Cn1c(C(F)(F)F)cc(=O)n(-c2ccc3snc(C(Br)C#N)c3c2)c1=O (stereo not drawn) [Example 264, 1,2-Benzisothiazole-3-acetonitrile, alpha-bromo-5-[3,6-dihydro-3-methyl-2,6-dioxo-4-(trifluoromethyl)-1(2H)-pyrimidinyl]-] | 4.0 | 9.0 | 9.0 | 0.0 | 0.0 | 2.0 | 0.0 | 0.0 | 5.0 | 9.0 | 9.0 | 9.0 | 0.0 | 0.0 | 0.0 | 5.0 | 5.0 | 5.0 | 4.0 | 0.0 | ORYSAT herbicidal effect rating ([3]; Rate 0.0320 kg/ha): 0.0; MOOVA herbicidal effect rating ([4]; Rate 0.0320 kg/ha): 9.0; SAGPY herbicidal effect rating ([5]; Rate 0.0320 kg/ha): 0.0; CYPIR herbicidal effect rating ([6]; Rate 0.0320 kg/ha): 5.0
Cc1ccc(OCC(=O)OC(C)(C)C)c(-c2noc3ccc(-n4c(=O)cc(C(F)(F)F)n(C)c4=O)c(Cl)c23)c1 [Example 265, Acetic acid, {{2-{4-chloro-5-[3,6-dihydro-3-methyl-2,6-dioxo-4-(trifluoromethyl)-1(2H)-pyrimidinyl]-1,2-benzisoxazol-3-yl}-p-tolyl}oxy}-, tert-butyl ester] | 0.0 | 0.0 | 0.0 | 0.0 | 0.0 | 0.0 | 0.0 | 0.0 | 0.0 | 9.0 | 9.0 | 9.0 | 0.0 | 0.0 | 0.0 | 0.0 | 0.0 | 3.0 | 0.0 | 0.0 | ORYSAT herbicidal effect rating ([3]; Rate 0.0320 kg/ha): 0.0; MOOVA herbicidal effect rating ([4]; Rate 0.0320 kg/ha): 9.0; SAGPY herbicidal effect rating ([5]; Rate 0.0320 kg/ha): 0.0; CYPIR herbicidal effect rating ([6]; Rate 0.0320 kg/ha): 0.0
Cn1c(C(F)(F)F)cc(=O)n(-c2ccc3snc(-c4ccccc4OCC(=O)NS(C)(=O)=O)c3c2)c1=O [Example 268, Acetamide, 2-{o-{5-[3,6-dihydro-3-methyl-2,6-dioxo-4-(trifluoromethyl)-1(2H)-pyrimidinyl]-1,2-benzisothiazol-3-yl}phenoxy}-N-(methylsulfonyl)-] | 5.5 | 9.0 | 9.0 | 3.0 | 4.5 | 4.5 | 4.0 | 5.0 | 7.5 | 9.0 | 9.0 | 9.0 | 1.0 | 1.0 | 4.0 | 3.0 | 6.0 | 7.5 | 1.0 | 1.0 | ORYSAT herbicidal effect rating ([3]; Rate 0.0320 kg/ha): 3.5; MOOVA herbicidal effect rating ([4]; Rate 0.0320 kg/ha): 7.5; SAGPY herbicidal effect rating ([5]; Rate 0.0320 kg/ha): 0.0; CYPIR herbicidal effect rating ([6]; Rate 0.0320 kg/ha): 1.0
CC(=O)Nc1nnc(S(=O)(=O)NC(=O)COc2ccc(C)cc2-c2nsc3ccc(-n4c(=O)cc(C(F)(F)F)n(C)c4=O)cc23)s1 [Example 269, Acetamide, N-[(5-acetamido-1,3,4-thiadiazol-2-yl)sulfonyl]-2-{{2-{5-[3,6-dihydro-3-methyl-2,6-dioxo-4-(trifluoromethyl)-1(2H)-pyrimidinyl]-1,2-benzisothiazol-3-yl}-p-tolyl}oxy}-] | – | – | 0.0 | – | – | 0.0 | – | – | 0.0 | – | – | 0.0 | – | – | 0.0 | – | – | 0.0 | – | – | CYPSE herbicidal effect rating ([1]; Rate 0.5000 kg/ha): 0.0; ECHORC herbicidal effect rating ([2]; Rate 0.5000 kg/ha): 4.0; ORYSAT herbicidal effect rating ([3]; Rate 0.5000 kg/ha): 0.0; MOOVA herbicidal effect rating ([4]; Rate 0.5000 kg/ha): 9.0; SAGPY herbicidal effect rating ([5]; Rate 0.5000 kg/ha): 0.0; CYPIR herbicidal effect rating ([6]; Rate 0.5000 kg/ha): 0.0
Cc1ccc(OCC(=O)NS(=O)(=O)c2c(C)noc2C)c(-c2nsc3ccc(-n4c(=O)cc(C(F)(F)F)n(C)c4=O)cc23)c1 [Example 270, Acetamide, 2-{{2-{5-[3,6-dihydro-3-methyl-2,6-dioxo-4-(trifluoromethyl)-1(2H)-pyrimidinyl]-1,2-benzisothiazol-3-yl}-p-tolyl}oxy}-N-[(3,5-dimethylisoxazol-4-yl)sulfonyl]-] | 0.0 | 7.0 | 9.0 | 2.7 | 4.3 | 9.0 | 4.0 | 7.0 | 8.0 | 9.0 | 9.0 | 9.0 | 0.0 | 0.0 | 0.0 | 9.0 | 9.0 | 9.0 | 0.0 | 1.3 | CYPSE herbicidal effect rating ([1]; Rate 0.5000 kg/ha): 3.0; ECHORC herbicidal effect rating ([2]; Rate 0.5000 kg/ha): 9.0; ORYSAT herbicidal effect rating ([3]; Rate 0.0320 kg/ha): 4.0; ORYSAT herbicidal effect rating ([3]; Rate 0.5000 kg/ha): 2.0; MOOVA herbicidal effect rating ([4]; Rate 0.0320 kg/ha): 9.0; MOOVA herbicidal effect rating ([4]; Rate 0.5000 kg/ha): 9.0; SAGPY herbicidal effect rating ([5]; Rate 0.0320 kg/ha): 0.0; SAGPY herbicidal effect rating ([5]; Rate 0.5000 kg/ha): 5.0; CYPIR herbicidal effect rating ([6]; Rate 0.0320 kg/ha): 8.0; CYPIR herbicidal effect rating ([6]; Rate 0.5000 kg/ha): 9.0
